According to patent publication EP0046712A1, “Fluorinated diaminobutane derivatives” (MERRELL TORAUDE ET COMPAGNIE, priority 1980, dated 1982):
Like-named read-outs stand apart in the source and are kept apart here.

Columns and labels:
Assay type in all cases: in vivo
GABA-T = molecular target: T1, GABA-T (Mus musculus, UniProt P61922); assay: GABA-T activity in brain of mice after daily i.p. dosing for four days; details: ip, four consecutive days, 24 hours after the last dose; for inhibition at 5 mg/kg: daily dose 5 mg/kg i.p.; for inhibition at 10 mg/kg: daily dose 10 mg/kg i.p.
T1 construct: The brains are removed from the dead mice and are divided into two portions by sagittal section; from tissue; host or cells: brain of male albino CD1 mice dosed i.p. for four days
Experimental: (§1) A group of 10 male albino CDI mice from Charles Riner, France, is given an i.p. injection of the test compound in aqueous solution daily for four consecutive days. Half of the animals are killed by decapitation 24 hours after the last dose of the test compound. The other half of the animals are observed for up to 12 days for toxicity (as indicated by weight loss and deaths). Control animals receive an injection of the vehicle only.
(§2) The brains are removed from the dead mice and are divided into two portions by sagittal section. One half is used for the measurement of GABA-T activity while the other half is used for measuring GABA content. The GABA-T activity is measured using known methods as dessribed by M.Jung et al., J. Neurochem., 28, 717 (1977) and 29, 797 (1977). GABA content is measured by perchloric acid or trichloroacetic acid extracts using an amino acid analyzer equiped with a fluorescene detector.

[1] = tested on: GABA concentration in the brain; assay: GABA content in brain of mice after daily i.p. dosing for four days; details: four consecutive days, 24 hours after the last dose
Experimental: as §1, §2

[2] = Toxicity (weight loss and deaths) in mice after daily i.p. dosing for four days; details: four consecutive days, observed for up to 12 days; for Morality (After treatment) / mortality at 288 h: deaths per 5 mice; for mortality at 288 h: mouse, in vivo, ip, read-out: Morality (After treatment) (converted)
Experimental: as §1

[3] = tested on: clonic seizures induced by an i.v. challenge of (+)-bicuculline; assay: Protection of mice against clonic seizures induced by i.v. (+)-bicuculline; details: for ED50: Mus musculus, ip, single dose, protection against bicuculline-induced clonic seizures

T1 sequence (P61922 29-500): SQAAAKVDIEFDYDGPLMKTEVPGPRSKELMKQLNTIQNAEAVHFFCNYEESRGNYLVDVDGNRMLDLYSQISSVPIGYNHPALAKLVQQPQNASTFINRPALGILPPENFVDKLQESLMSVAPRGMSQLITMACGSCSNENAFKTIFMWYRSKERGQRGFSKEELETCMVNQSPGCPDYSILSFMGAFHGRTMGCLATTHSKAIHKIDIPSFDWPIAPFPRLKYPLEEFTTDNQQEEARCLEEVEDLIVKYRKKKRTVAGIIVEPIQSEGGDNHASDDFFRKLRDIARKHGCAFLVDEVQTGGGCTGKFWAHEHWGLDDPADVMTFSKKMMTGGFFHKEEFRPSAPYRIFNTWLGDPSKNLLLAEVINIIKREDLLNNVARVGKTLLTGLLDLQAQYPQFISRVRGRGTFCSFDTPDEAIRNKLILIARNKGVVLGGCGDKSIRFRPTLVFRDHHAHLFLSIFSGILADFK

SMILES: NCCC(N)CF (stereo not drawn) [MFDB, 1-fluoro-2,4-diaminobutane]
- inhibition at 5 mg/kg (GABA-T): 39.7%
- inhibition at 10 mg/kg (GABA-T): 49.8%
- inhibition at 25 mg/kg (GABA-T; daily dose 25 mg/kg i.p.): 74%
- inhibition at 50 mg/kg (GABA-T; daily dose 50 mg/kg i.p.): 79%
- GABA content elevation ([1]; daily dose 5 mg/kg i.p.): 190%
- GABA content elevation ([1]; daily dose 10 mg/kg i.p.): 200%
- GABA content elevation ([1]; daily dose 25 mg/kg i.p.): 470%
- GABA content elevation ([1]; daily dose 50 mg/kg i.p.): 465%
- Morality (After treatment) ([2]; daily dose 5 mg/kg i.p.): 0/5
- Weight Loss ([2]; daily dose 5 mg/kg i.p.): 0%
- Morality (After treatment) ([2]; daily dose 10 mg/kg i.p.): 0/5
- Weight Loss ([2]; daily dose 10 mg/kg i.p.): 0%
- mortality at 288 h ([2]; daily dose 25 mg/kg i.p.): 40%
- mortality at 288 h ([2]; daily dose 50 mg/kg i.p.): 60%
- ED50 [3]: 65 mg/kg
- % of Animals Blocked ([3]; single dose 42 mg/kg i.p.): 20%
- % of Animals Blocked ([3]; single dose 51 mg/kg i.p.): 40%
- % of Animals Blocked ([3]; single dose 59 mg/kg i.p.): 50%
- % of Animals Blocked ([3]; single dose 68 mg/kg i.p.): 55%
- % of Animals Blocked ([3]; single dose 84 mg/kg i.p.): 60%
- % of Animals Blocked ([3]; single dose 100 mg/kg i.p.): 60%

SMILES: NCCC(N)C(F)F (stereo not drawn) [DFDB, 1,1-difluoro-2,4-diaminobutane]
- inhibition at 2 mg/kg (GABA-T; daily dose 2 mg/kg i.p.): 69.5%
- inhibition at 5 mg/kg (GABA-T): 71.4%
- inhibition at 10 mg/kg (GABA-T): 81%
- inhibition at 20 mg/kg (GABA-T; daily dose 20 mg/kg i.p.): 96.7%
- GABA content elevation ([1]; daily dose 5 mg/kg i.p.): 200%
- GABA content elevation ([1]; daily dose 10 mg/kg i.p.): 275%
- GABA content elevation ([1]; daily dose 20 mg/kg i.p.): 465%
- Morality (After treatment) ([2]; daily dose 2 mg/kg i.p.): 0/5
- Weight Loss ([2]; daily dose 2 mg/kg i.p.): 0%
- Morality (After treatment) ([2]; daily dose 5 mg/kg i.p.): 0/5
- Weight Loss ([2]; daily dose 5 mg/kg i.p.): 0%
- mortality at 288 h ([2]; daily dose 10 mg/kg i.p.): 60%
- mortality at 288 h ([2]; daily dose 20 mg/kg i.p.): 100%
- ED50 [3]: 4.2 mg/kg
- % of Animals Blocked ([3]; single dose 3 mg/kg i.p.): 20%
- % of Animals Blocked ([3]; single dose 4 mg/kg i.p.): 45%
- % of Animals Blocked ([3]; single dose 6 mg/kg i.p.): 90%
- % of Animals Blocked ([3]; single dose 8 mg/kg i.p.): 95%
